Measured values from patent US6699969B1, “Assays for the detection of microtubule depolymerization inhibitors” (The Regents of the University of California, priority 1998, dated 2004).

System: MSU1.1 human fibroblasts
Assay: Centrosome targeting of GFP fusion after transient transfection
Format: cell-based
Conditions: 2-4 hr after transfection
Procedure: To allow transient expression of a human p80 WD40-GFP fusion protein in HeLa cells, a DNA fragment containing amino acids 1-263 of human p80 katanin was generated by PCR amplification, placing a BamHl site and a Kozak consensus at the predicted translation start and an EcoRI site after the codon for a.a. 263. This BamH1-EcoR1 fragment was ligated into the GFP fusion vector pEGFP-N1 (Clontech).
Both MSU1.1 and Hela cells were grown on 18 mm glass coverslips in Optimem medium (Life Technologies) supplemented with 10% fetal bovine serum, penicillin and streptomycin. Plasmids were transfected using Superfect Reagent (Qiagen) for 2 hr after which coverslips were washed with PBS and placed in fresh culture medium at 37° C. with 5% CO2 for 1-24 hr.
For imaging of GFP-fluorescence and immunofluorescence with the human p80 katanin antibody or with the γ-tubulin antibody, monoclonal GTU88 (Sigma Chemical), cells on coverslips were fixed either in −20° C. methanol or in 0.5×PBS, 3.7% formaldehyde, 75% methanol at 22° C. for 10 min followed by rehydration in TBST. Antibody labelling was carried out in TBST containing 4% BSA. Images were captured with a Nikon Microphot SA microscope, 100× Plan Fluor 1.3 objective, Photometrics Quantix camera and IP Lab Spectrum software (Scanalytics).

## p80 WD40-GFP: six WD40 repeats of human p80 katanin (a.a. 1-263) appended to N-terminus of green fluorescent protein
  localization of green fluorescence: co-localized with γ-tubulin staining
